EPA's ToxValDB 9.5 (doi:10.2903/j.efsa.2009.181r)
Values after ≈ are worked out from the molar mass of the structure shown.

Key:
Colinus virginianus = details: mortality
Anas platyrhynchos = details: short-term; oral; feed; mortality
Apis mellifera = details: acute; dermal; mortality
Avena sativa = details: chronic/long-term; body weight
Bibionidae = details: chronic/long-term; duration: 28 days; seedling emergence
Pardosa sp. = details: acute; duration: 7 days; mortality
Daphnia magna = details: chronic/long-term; duration: 21 days; reproduction

`CC(C)N(C(=O)SCC(Cl)=C(Cl)Cl)C(C)C` [Tri-allate] gave an LD50 (Colinus virginianus; acute, oral) of 1560 mg/kg-day, an NOEC (Colinus virginianus; reproduction developmental) of 54 mg/kg-day and an LC50 (Anas platyrhynchos) greater than 1210 mg/kg-day. For the same compound, the LD50 (Apis mellifera) was greater than 100 µg/piece, the NOEC (Avena sativa) was 11 g/ha and the NOAEL (Rattus norvegicus; acute, oral, clinical signs) was 60 mg/kg-day. It also gave an LD50 (Rattus norvegicus; acute, oral, mortality) of 1100 mg/kg, an NOEL (Rattus norvegicus; chronic, M, mortality) of 9 mg/kg-day and an NOAEL (Rattus norvegicus; chronic, duration: 2 years, oral, diet, mortality) of 2.5 mg/kg-day. For the same compound, the NOAEL (Rattus norvegicus; subchronic, duration: 90 days, histopathology: nonneoplastic) was 6.4 mg/kg-day, the NOEC (Bibionidae) was 0.583 mg/L and the LC50 (Tagia sp.; acute, duration: 14 days, mortality) was 549 mg/kg. For the same compound, the NOEC (Tagia sp.; chronic/long-term, duration: 56 days, reproduction) was 27.2 mg/kg, the LC50 (Oncorhynchus mykiss; acute, duration: 96 hours, mortality) was 0.95 µg/mL (≈ 3.12 µM) and the NOEC (Oncorhynchus mykiss; chronic/long-term, duration: 88 days, growth) was 0.038 mg/L. The LEL (Pardosa sp.) was 2280 g/ha and the NOEC (Daphnia magna) was 0.013 mg/L.
